# US20250026741A1, “INHIBITORS OF THE ONCOGENIC SHP2 PHOSPHATASE AND USES THEREOF” (Sanford Burnham Prebys Medical Discovery Institute, priority 2021, published 2025)
# Experiments:
# [1] = system: MOLM-13-Cas9-mCherry cells with SHP2 KO; assay: SHP2 CRISPR-Cas9 knockout inhibitor selectivity assay (cell viability); format: cell-based; details: MOLM-13-Cas9-mCherry SHP2 KO cells, 72 h
# Description: Finally, we evaluated the selectivity of our top two compounds, #01 and #02, on MOLM-13 AML cells in which SHP2 was depleted using CRISPR-Cas9 knock-out (KO). High-efficiency Cas9-editing MOLM-13 cells were generated by transducingMOLM-13 cells with a Cas9 lentiviral construct. Stable clones were tested for editing efficiency by performing TIDE analysis (45), and these MOLM13-Cas9 cells were transduced with a lentiviral construct containing an AAVS1 single guide RNA (sgRNA) and an mCherry reporter for bulk-sorting of cells with successful AAVS1 editing. SHP2 KO was achieved by transducing MOLM-13-Cas9-mCherry cells with a lentivirus containing SHP2 dual sgRNAs, resulting in ˜80% reduction of SHP2 protein levels (FIG. 3G). #01, #02, and the SHP2 allosteric inhibitor SHP099 were tested in parallel on regular MOLM-13 cells (expressing WT SHP2) and MOLM-13-Cas9-mCherry cells with SHP2 KO. Cells were treated with inhibitors at various concentrations (ranging from […] to 58 nM) or vehicle control (DMSO) for 72 h, before cell viability was assessed.
# High-efficiency Cas9-editing MOLM-13 cells were generated by transducing MOLM-13 cells with the pLenti-Cas9-blasticidin construct (Addgene plasmid #52962) and selecting single stable clones using flow-sorting. Clones were then tested for editing efficiency by performing TIDE analysis (45). These MOLM13-Cas9 cells were then transduced with a lentiviral construct containing an AAVS sgRNA and an mCherry reporter out of frame and downstream of an AAVS sgRNA targeting site. […]
# For SHP2 KO, dual sgRNAs targeting SHP2 were cloned in the pLentiGuide puro vector (Addgene plasmid #52963) using a published protocol (50). […] SHP2 KO was evaluated by immunoblotting. […] For SHP2 KO, MOLM-13-Cas9-mCherry cells were seeded in nontreated 6-well-plates ([…] in 2.5 mL), with cell numbers determined by trypan blue using the Countess Cell counter (Thermo Scientific). […] Cell viability was assessed using the ATP-depletion assay CellTiter-Glo® (Promega) as described above, and data were analyzed using GraphPad Prism software.
# [2] = system: p-ERK1/2 in U-937 AML cells (SHP2 G60R); assay: Phospho-ERK1/2 immunoblot analysis, U-937; format: cell-based; details: U-937, 24 h; #02 1, 3, 10, 30 μM; RMC-4550 1 μM
# Text: Oncogenic gain-of-function mutations in SHP2 drive leukemogenesis in a significant number of leukemia patients. However, due to their unique mechanism of action, the existing SHP2 allosteric inhibitors lack activity against the most common SHP2 oncogenic variants. Thus, we tested whether #02 can inhibit the growth of leukemia cells expressing oncogenic SHP2 variants. […] Using the U-937 AML cell line, which harbors a G60R oncogenic mutation in SHP2, we treated cells with either #02 or RMC-4550 at various concentrations, ranging from 0.123 to 30 μM (FIG. 4A). […] We also assessed the effects of #02 and RMC-4550 on ERK1/2 activation in the SHP2 mutant U-937 cell line. Similar to the immunoblot experiments described above, U-937 AML cells were treated with either vehicle control (DMSO), #02 (1, 3, 10, or 30 μM), or with RMC-4550 (1 μM) for 24 h and processed for p-ERK1/2 immunoblot analysis (FIG. 4B).
# Total protein extracts were prepared in modified RIPA lysis buffer (25 mM Tris-HCl, pH 7.4, 10% glycerol, 0.2% Triton™ X-100, 150 mM NaCl, 2 mM Na3VO4, 1 mM EDTA) containing a protease inhibitor cocktail (Roche Applied Science, Indianapolis, IN). […] Densitometric quantitation of immunoblots was performed using Image Studio Lite Software. Changes of phosphorylated ERK1/2 to total ERK1/2 rations are expressed as percentage of the vehicle-treated controls. […]
Compound,effect on viability of SHP2 KO cells [1],ERK1/2 activation (p-ERK1/2 levels) [2]
"Nc1ccc(NC(=O)c2cc(-c3ccc(/C=C4\Sc5ccccc5C4=O)o3)ccc2O)cc1 [#01, (Z)—N-(4-Aminophenyl)-2-hydroxy-5-(5-((3-oxobenzo[b]thiophen-2(3H)-ylidene)methyl)furan-2-yl)benzamide]","either no effect, or a greatly reduced effect",–
"O=C(Nc1ccccc1)c1cc(-c2ccc(/C=C3\Sc4ccccc4C3=O)o2)ccc1O [#02, (Z)-2-hydroxy-5-(5-((3-oxobenzo[b]thiophen-2(3H)-ylidene)methyl)furan-2-yl)-N-phenylbenzamide]","either no effect, or a greatly reduced effect",dose-dependently inhibited ERK1/2 activation
